Values of other authors as cited in patent publication US20240156825A1, “USE OF SELECTIVE VEGFR2 AND FGFR1 INHIBITORS” (Fountain Therapeutics Inc., priority 2022, published 2024).
pIC50: −log10 of the molar value.

Test system: any gene target
Details: Table 2; lowest reported IC50 to any gene target; read-out: Min IC50_μM; cited from earlier work

`COc1cc(OC)cc(N(CCN2CCCCC2C)c2ccc3ncc(-c4cnn(C)c4)nc3c2)c1` (stereo not shown) [compound 134146514] and `COc1cc(OC)cc(N(CCN2CCC[C@H]2C)c2ccc3ncc(-c4cnn(C)c4)nc3c2)c1` [compound 134145938] are within 0.2 log units of each other in pIC50: 8.60 for the first, 8.70 for the second.

`COc1cc(F)cc(N(CCNC(C)C)c2ccc3ncc(-c4cn[nH]c4)nc3c2)c1` [compound 134153940] and `COc1cc(OC)cc(N(CCNC(C)C)c2ccc3ncc(-c4cn[nH]c4)nc3c2)c1` [compound 134157816] are within 0.2 log units of each other in pIC50: 8.68 for the first, 8.55 for the second.

`CNCCN(c1cc(OC)cc(OC)c1)c1ccc2ncc(-c3cnn(CC(=O)NC)c3)nc2c1` [compound 134131862] and `CCn1cc(-c2cnc3ccc(N(CCNC)c4cc(OC)cc(OC)c4)cc3n2)cn1` [compound 68208927] are within 0.2 log units of each other in pIC50: 8.62 for the first, 8.45 for the second.

First: COc1ccc(Cl)c(N(CCNC(C)C)c2ccc3ncc(-c4cnn(C)c4)nc3c2)c1 [compound 134153603]
Second: COc1ccc(OC)c(N(CCNC(C)C)c2ccc3ncc(-c4cnn(C)c4)nc3c2)c1 [compound 54591211]
The pIC50 of the first is 1.61 log units higher: 8.43 for the first, 6.82 for the second.

`COc1cc(OC)cc(N(CCCN2C[C@@H](C)O[C@@H](C)C2)c2ccc3ncc(-c4cnn(C)c4)nc3c2)c1` [compound 89447204] and `COc1cc(OC)cc(N(CCCN2CCC(N3C[C@@H](C)O[C@@H](C)C3)C2)c2ccc3ncc(-c4cnn(C)c4)nc3c2)c1` (stereo partly shown) [compound 134155786] are within 0.2 log units of each other in pIC50: 8.45 for the first, 8.34 for the second.

`CNC1CCN(CCCN(c2cc(OC)cc(OC)c2)c2ccc3ncc(-c4cnn(C)c4)nc3c2)C1` (stereo not shown) [compound 134140450] and `COc1cc(OC)cc(N(CCN2CCCC2)c2ccc3ncc(-c4cnn(C)c4)nc3c2)c1` [compound 134156523] are within 0.2 log units of each other in pIC50: 8.65 for the first, 8.75 for the second.

`CCN(CC)CCN(c1cc(OC)cc(OC)c1)c1ccc2ncc(-c3cnn(C)c3)nc2c1` [compound 68208850] and `COc1cc(OC)cc(N(CCN(C)C(C)C)c2ccc3ncc(-c4cnn(C)c4)nc3c2)c1` [compound 68209043] are within 0.2 log units of each other in pIC50: 8.52 for the first, 8.41 for the second.

`COc1cc(OC)cc(N(CCN2CCCCC2)c2ccc3ncc(-c4cnn(C)c4)nc3c2)c1` [compound 68209029] and `COc1cc(OC)cc(N(CCN2CCC(CCO)CC2)c2ccc3ncc(-c4cnn(C)c4)nc3c2)c1` [compound 68208907] are within 0.2 log units of each other in pIC50: 8.65 for the first, 8.54 for the second.

Compared with `COc1cc(OC)c(Cl)c(N(CCNC(C)C)c2ccc3ncc(-c4cnn(C)c4)nc3c2)c1Cl` [compound 88888615], `COc1cc(OC)cc(N(CCNC(C)C)c2ccc3ncc(-c4cnn(C)c4)nc3c2)c1` [compound 89447047] is 0.72 log units higher in pIC50: 8.04 for the first, 8.76 for the second.

First: COc1cc(OC)cc(N(c2ccc3ncc(-c4cnn(C)c4)nc3c2)C(C)CNC(C)C)c1 (stereo not shown) [compound 68208877]
Second: COc1cc(OC)cc(N(Cc2ccccc2Cl)c2ccc3ncc(-c4cnn(C)c4)nc3c2)c1 [compound 68208812]
The pIC50 of the first is 1.10 log units higher: 8.31 for the first, 7.21 for the second. The first is the more potent here.

Going from `COc1cc(OC)cc(N(CC#Cc2cccc(N)n2)c2ccc3ncc(-c4cnn(C)c4)nc3c2)c1` [compound 67466417] to `COc1cc(OC)cc(N(CC#Cc2cc(CO)ccn2)c2ccc3ncc(-c4cnn(C)c4)nc3c2)c1` [compound 89447343], the pIC50 rises from 7.37 to 8.47 (1.10 log units).

`COc1cc(OC)cc(N(CC#Cc2nccc(OC)n2)c2ccc3ncc(-c4cnn(C)c4)nc3c2)c1` [compound 67467703] and `COc1cc(OC)cc(N(CCN(Cc2ccc(N)cc2)C(C)C)c2ccc3ncc(-c4cnn(C)c4)nc3c2)c1` [compound 89447175] are within 0.2 log units of each other in pIC50: 8.13 for the first, 8.23 for the second.

Going from `COc1cccnc1C#CCN(c1ccc2ncc(-c3cnn(C)c3)nc2c1)c1c(Cl)c(OC)cc(OC)c1Cl` [compound 89447340] to `COc1cc(OC)c(C)c(N(CCCN2CCCC2)c2ccc3ncc(-c4cnn(C)c4)nc3c2)c1` [compound 134145340], the pIC50 rises from 8.23 to 8.45 (0.22 log units).

First: COc1cc(OC)cc(N(CCNC(C)C)c2ccc3ncc(-c4c(C)nn(C)c4C)nc3c2)c1 [compound 134138098]
Second: COc1cc(OC)cc(N(CCNC(C)C)c2ccc3ncc(-c4cnn(CC5CCOCC5)c4)nc3c2)c1 [compound 134141677]
The pIC50 of the first is 0.69 log units lower: 7.97 for the first, 8.66 for the second. The second is the more potent here.

In the case of `C=CC(=O)N1CCN(CCCn2c(=O)c(-c3c(Cl)c(OC)cc(OC)c3Cl)cc3cnc(NC)nc32)CC1` [compound 118295624], the pIC50 is listed as 8.89.

Same assay, conditions: lowest reported IC50 to any gene target; read-out: Min IC50_μM; cited from earlier work

First: COc1cc(OC)cc(-c2cc3cnc(NCCCCCN4CCOCC4)cc3nc2NC(=O)NC(C)(C)C)c1 [compound 5330134]
Second: COc1cc(OC)cc(-c2cc3cnc(N)nc3n(C)c2=O)c1 [compound 44294299]
The pIC50 of the first is 2.40 log units higher: 9.30 for the first, 6.90 for the second.

Going from `COc1cc(OC)cc(N(CC#CC2(O)CCNCC2)c2ccc3ncc(-c4cnn(C)c4)nc3c2)c1` [compound 89447547] to `COc1cc(OC)cc(N(CC#Cc2cnccn2)c2ccc3ncc(-c4cnn(C)c4)nc3c2)c1` [compound 89447472], the pIC50 falls from 8.15 to 7.75 (0.40 log units). The first is the more potent here.

Going from `CNCC(O)CN(c1cc(OC)cc(OC)c1)c1ccc2ncc(-c3cnn(C)c3)nc2c1` (stereo not shown) [compound 134149546] to `CNC[C@H](O)CN(c1cc(OC)cc(OC)c1)c1ccc2ncc(-c3cnn(C)c3)nc2c1` [compound 68209125], the pIC50 rises from 8.55 to 8.75 (0.20 log units).

`COc1cc(OC)cc(N(CCCN2[C@H](C)CC[C@@H]2C)c2ccc3ncc(-c4cnn(C)c4)nc3c2)c1` [compound 89447423] and `COc1cc(OC)cc(N(CCN2[C@@H](C)CC[C@@H]2C)c2ccc3ncc(-c4cnn(C)c4)nc3c2)c1` [compound 89447247] are within 0.2 log units of each other in pIC50: 8.49 for the first, 8.42 for the second.

Going from `CC(C)(C)NC(=O)Nc1ccc2[nH]nc(-c3nc4ccc(N5CCC(N6CCCCC6)CC5)cc4[nH]3)c2c1` [compound 135819982] to `COc1cc(OC)cc(N(CCN2CCN(C(=O)C3CC3)CC2)c2ccc3ncc(-c4cnn(C)c4)nc3c2)c1` [compound 89447346], the pIC50 falls from 9.00 to 8.11 (0.89 log units). The first is the more potent here.

`COc1cc(OC)cc(N(CCN2CCC(N(C)C)CC2)c2ccc3ncc(-c4cnn(C)c4)nc3c2)c1` [compound 68209057] and `COc1cc(OC)cc(N(CCN2CCC(C(C)(C)O)CC2)c2ccc3ncc(-c4cnn(C)c4)nc3c2)c1` [compound 68209085] are within 0.2 log units of each other in pIC50: 8.29 for the first, 8.41 for the second.

Compared with `COc1cccc(N(CCNC(C)C)c2ccc3ncc(-c4cnn(C)c4)nc3c2)c1` [compound 134138612], `CCOC(=O)C1CCN(CCN(c2cc(OC)cc(OC)c2)c2ccc3ncc(-c4cnn(C)c4)nc3c2)CC1` [compound 68209310] is 0.33 log units higher in pIC50: 8.14 for the first, 8.47 for the second. The second is the more potent here.

For `COC(=O)C1=C(c2ccccc2)c2ccccc2C1=O` [compound 10015651], the pIC50 is given as 5.29.

Same assay, conditions: next lowest IC50 value to any gene target; Table 3; read-out: Min IC50_μM; cited from earlier work

Going from `CCCNC(=O)Nc1ccc(Oc2ncnc3cc(OC)c(OC)cc23)cc1Cl` [compound 9549295] to `COc1cc2c(Nc3ccc(Cl)c(Cl)c3F)ncnc2cc1OC[C@@H]1CN2CCCC[C@H]2C(=O)N1` [compound 57802612], the pIC50 falls from 9.00 to 7.30 (1.70 log units).

First: COc1cc2c(Nc3ccc(Cl)c(Cl)c3F)ncnc2cc1OC[C@@H]1CN2CCCC[C@@H]2C(=O)N1 [compound 57802634]
Second: Oc1ccc(-c2cnn3cc(-c4ccc(OCCN5CCOCC5)cc4)cnc23)cc1O [compound 52944268]
The pIC50 of the first is 1.70 log units lower: 7.30 for the first, 9.00 for the second.

Same assay, conditions: next lowest IC50 value to any gene target; read-out: Min IC50_μM; cited from earlier work

Compared with `COc1cc2nccc(Oc3ccc(NC(=O)NC4CC4)c(Cl)c3)c2cc1C(N)=O` [compound 9823820], `COc1cc2nccc(Oc3ccc4c(C(=O)NC5CC5)cccc4c3)c2cc1OC` [compound 11441375] is 0.71 log units lower in pIC50: 8.28 for the first, 7.57 for the second.

Going from `COc1ccc(-c2ccc(NC(=O)Nc3cccc(Cl)c3)cc2)c2c(N)noc12` [compound 11429729] to `Cc1cccc(NC(=O)Nc2ccc(-c3cncc4c3c(N)nn4C)cc2)c1` [compound 11588815], the pIC50 rises from 7.52 to 8.70 (1.18 log units).

First: Clc1ccc(Nc2nnc(Cc3ccncc3)c3ccccc23)cc1 [compound 151193]
Second: O=C(Nc1cccc(C(F)(F)F)c1)c1ccccc1NCc1ccncc1 [compound 6398883]
The pIC50 of the first is 0.63 log units lower: 7.11 for the first, 7.74 for the second.

`COc1ccc2c(Oc3ccc4c(C(N)=O)cccc4c3)ccnc2c1` [compound 24823095] and `CNC(=O)c1cccc2cc(Oc3ccnc4cc(OC)c(OC)cc34)ccc12` [compound 11749561] are within 0.2 log units of each other in pIC50: 6.89 for the first, 6.96 for the second.

Compared with `Cc1n[nH]c2sc(C(N)=O)c(NC(=O)c3ccccc3Cl)c12` [compound 44405999], `Cc1n[nH]c2sc(C(=O)NCc3ccccc3)cc12` [compound 44405941] is 0.25 log units lower in pIC50: 5.05 for the first, 4.80 for the second.

First: COc1cc2ncnc(Oc3ccc4c(C(N)=O)cccc4c3)c2cc1OC [compound 24823094]
Second: COc1cc2nccc(Oc3ccc4c(C(=O)Nc5ccc(Cl)cc5)cccc4c3)c2cc1OC [compound 24757938]
The pIC50 of the first is 3.13 log units lower: 6.17 for the first, 9.30 for the second. The second is the more potent here.

`COc1ccc(-c2cnc3c(-c4cn[nH]c4)cnn3c2)cc1` [compound 57339386] and `COc1ccc(N(C)c2ncnc3occ(C)c23)cc1` [compound 44555430] are within 0.2 log units of each other in pIC50: 7.80 for the first, 7.91 for the second.

Compared with `CCN(Cc1ccccc1)c1nc(O)nc(Nc2ccc3ncsc3c2)n1` [compound 135509841], `O=C(NCc1ccccc1)c1cc2c(-c3ccccc3)n[nH]c2s1` [compound 11359538] is 0.70 log units lower in pIC50: 6.40 for the first, 5.70 for the second. The first is the more potent here.

`CC(C)n1nc(-c2ccc3cc(O)ccc3c2)c2c(N)ncnc21` [compound 135947979] and `Nc1ncnc2snc(-c3ccc(NC(=O)Nc4cc(C(F)(F)F)ccc4F)cc3)c12` [compound 44414779] are within 0.2 log units of each other in pIC50: 7.70 for the first, 7.66 for the second.

Going from `C[C@@H](Nc1ncnc2[nH]c(-c3ccc(CNCCCCCCCC(=O)NO)cc3)cc12)c1ccccc1` [compound 24900644] to `Clc1ccc(Nc2nnc(Cc3ccncc3)c3ccccc23)cc1` [compound 151194], the pIC50 rises from 7.00 to 7.27 (0.27 log units).

Compared with `Cc1ccc(Nc2nccc(N(C)c3ccc4c(C)n(C)nc4c3)n2)cc1S(N)(=O)=O` [compound 10113978], `c1ccc(-c2cnc3c(Nc4ccc(N5CCCCC5)cc4)cncc3n2)cc1` [compound 127030424] is 2.37 log units lower in pIC50: 8.00 for the first, 5.63 for the second. The first is the more potent here.

Compared with `COC(=O)c1ccc2c(C(=Nc3ccc(N4CCC(CN5CCN(C)CC5)C4=O)cc3)c3ccccc3)c(O)[nH]c2c1` (stereo not shown) [compound 136299423], `c1ccc(-c2cnc3cncc(Nc4ccc(N5CCCCC5)cc4)c3n2)cc1` [compound 57332840] is 1.66 log units lower in pIC50: 7.35 for the first, 5.69 for the second. The first is the more potent here.

For `O=C(NC1CCCCC1)c1cc2c(-c3ccccc3)n[nH]c2s1` [compound 44406074], the pIC50 is given as 4.96.
